Assay results reported in PubChem BioAssay (NCI).
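96-well plates; 48 h exposure; 5 concentrations. Endpoints by linear interpolation between flanking doses. Not reached: highest tested concentration assigned. GI50: concentration for 50% inhibition of growth. TGI is the concentration that stops growth completely.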

Legend:
Experiment in all cases: growth of human tumour cells (NCI), 48 h
[1] = system: DU-145 prostate
[2] = system: BT-549 breast
[3] = system: MCF7 breast
[4] = system: HS 578T breast
[5] = system: PC-3 prostate
[6] = system: NCI/ADR-RES ovarian

Compound | GI50 [1] [µM] | TGI [1] [µM] | GI50 [2] [µM] | TGI [2] [µM] | GI50 [3] [µM] | TGI [3] [µM] | GI50 [4] [µM] | TGI [4] [µM] | GI50 [5] [µM] | TGI [5] [µM] | GI50 [6] [µM] | TGI [6] [µM]
CCC(=O)Sc1ccccc1C(=O)Nc1ccc(Cl)cc1 | 22.1 | 74.3 | 3.21 | 9.89 | 3.86 | 36.2 | 15.9 | 66.4 | 10.8 | 56.3 | 6.45 | 38
COC(=O)c1ccc(CN2CCc3c([nH]c4ccccc34)C2CO)o1 (configuration not stated) |  | > 10 |  | > 10 |  | > 10 |  |  |  | > 10 |  | 
CCN(CC)c1ccc(NC(C(=O)c2ccccc2)c2ccccc2)cc1 (configuration not stated) | 2.24 | 5.08 | 2.85 | 9.59 | 2.23 | 16.6 | 3.41 | 47.1 | 3.62 | 16.8 | 2.54 | 6.21
COc1ccc(C2C3=C(NC(=O)C2C#N)c2ccc4ccccc4c2OCC3)cc1 (configuration not stated) | 31.4 | > 100 | 20.4 | 60.6 | > 100 | > 100 | 22.6 | 56.6 | 86.9 | > 100 | 31.3 | > 100
Cc1ccc(NS(=O)(=O)c2ccc(-c3cnc(C4CC4)o3)cc2)cc1 | 3.99 | 16.5 | 5.14 | 19.7 | 1.55 | 14.9 | 2.71 | 13.5 | 3.27 | 16.3 | 1.61 | 7.79
CCOc1ccc(NC(=O)Nc2cc(C(C)C)ccc2C)cc1 | 9.57 | > 58.4 | 1.58 | 6.24 | 11.8 | > 57.8 | 2.32 | 7.06 | 11.4 | > 58 | 6.96 | 44.7
COc1ccc(-c2cc3c4c(nc5ccccc5c4c2)CC(c2cc(OC)c(OC)c(OC)c2)O3)cc1 (configuration not stated) | 2.96 | > 100 | 2.92 | 31.7 | 2.36 | 79.5 | 1.24 | 6.81 |  |  | 3.03 | 47.3
Cc1cc(N(CCCl)CCCl)ccc1C=Nc1cccnc1 | 4.62 | 42.9 | 12.8 | 53.9 | 1.8 | > 100 | 37.7 | > 100 | 22.9 | > 100 | 12.1 | > 95.4
COc1ccccc1-c1cc2c3c(nc4ccccc42)C(=O)c2cccnc2-c3n1 | 13.8 | 28.5 | 13.3 | 18.1 | 1.44 | 3.95 | 17.9 | 37.9 | 14.9 | 38.2 | 7.11 | 32.6
COC(=O)C(=O)C(C(=O)C(=O)Nc1ccccc1C(=O)OC)c1nc2ccc(C(=O)c3ccccc3)cc2[nH]c1=O (configuration not stated) |  |  |  | > 100 |  | > 100 |  | > 100 |  | > 100 |  | > 100
CN(C)c1c(Cl)c(=O)oc2c1ccc1nc(-c3ccccc3)sc12 |  | > 100 |  | > 100 |  | > 100 |  | > 100 |  | > 100 |  | > 100
c1ccc2c(c1)O[As](O[As]1Oc3ccccc3O1)O2 | 3.96 | 15.2 | 1.22 | 6.55 | 1.86 | 13.2 | 3.47 | 65.9 |  |  | 3.58 | > 100
C=CC1CC12C(=O)C1OC2(C)C2C(=O)c3ccccc3C(=O)C12 (configuration not stated) | 72.7 | > 100 | > 72.9 | > 100 | 42.9 | > 76.1 | > 57.4 | 98.2 | 54.7 | > 100 | > 43.6 | > 70.9
COc1cc2c(cc1OC)C13CCN4CC5=CCOC(CC(=O)O)C(C5CC41)C3N2 (configuration not stated) |  |  |  | > 100 |  | > 100 |  | > 100 |  | > 100 |  | > 100
COc1ccc2c(c1)Oc1nc(N)c(C#N)c(N)c1C2Sc1ccc(SC)cc1 (configuration not stated) | 1.79 | 3.19 | 1.63 | 3 | 1.83 | 4.5 |  |  | 1.77 | 3.27 | 2.42 | 6.05
COc1cc(OC)c(-c2cc(=O)c3c(OC)c(OC)c(OC)c(OC)c3o2)cc1OC |  | > 100 |  | > 100 |  | > 100 |  | > 100 |  | > 100 |  | > 100
Cc1nc2sc(C(=O)Nc3cccc4ccccc34)c(N)c2cc1C(C)O (configuration not stated) | 0.247 | > 50 | 0.264 | > 13.8 | 0.17 | > 50 | 0.121 | > 50 | 0.285 | > 50 | 0.17 | 
COc1ccc(-c2cc3cccc(OC)c3c(=O)o2)cc1OC | 0.795 | > 100 | 0.636 | 88 | 32 | > 100 | 12.7 | > 100 | 55.9 | > 100 | 40.3 | > 100
O=C1c2ccn(CCCCN3CCOCC3)c2C(=O)c2c1c(O)c1ccccc1c2O |  |  |  |  | 6.26 | 24.8 | 29.8 | > 100 | 6.96 | 27.3 | 4.44 | 23.8
O=C1C(=O)c2ccc(Br)cc2-c2cc(Br)ccc21 | 7.29 | > 100 | 7.69 | > 95.3 | 2.34 | 8.61 | 8.27 | > 78.9 | 20.3 | > 96.6 | 1.59 | 8.12

Compound | GI50 [1] [µM] | TGI [1] [µM] | GI50 [2] [µM] | TGI [2] [µM] | GI50 [3] [µM] | TGI [3] [µM] | GI50 [4] [µM] | TGI [4] [µM] | GI50 [5] [µM] | TGI [5] [µM] | GI50 [6] [µM] | TGI [6] [µM]
CN(C(=O)C1CCCCC1)c1ccccc1I(=O)=O | 55.9 | > 100 | 42.4 | > 100 | 43.7 | > 100 | 52.9 | > 100 |  |  | 35.9 | > 100
Cc1ccc(S(=O)(=O)N(C)C)cc1[N+](=O)[O-] | > 100 | > 100 |  |  | > 100 | > 100 | > 100 | > 100 | > 100 | > 100 | > 100 | > 100
CCCOC(=O)N[C@H]1CCc2c(Br)c(OC)c(OC)c(OC)c2-c2ccc(SC)c(=O)cc21 | 0.0305 | 0.234 | 0.0223 | 6.39 | < 0.01 | 12.2 | 0.0321 | 49.1 | 0.0197 | > 100 | 0.0345 | > 57.4
COc1ccc(/C=C2/CN(C(=O)c3ccccc3F)C/C(=C\c3ccc(OC)cc3)C2=O)cc1 | 7.47 | 23.9 | 2.05 | 4.32 | 0.543 | 3.56 | 2.54 | 8.31 | 2.57 | 8.87 | 3.49 | 82.5
O=C(c1ccccc1)c1ccc(-c2ccc(O)cc2)cc1 | 5.62 | 29.4 | 4.04 | 31.3 | 0.34 | 25.2 | 17.3 | > 53.3 | 9.19 | 58 | 5.18 | 54.9
COc1ccc2c(c1)O/C(=C\c1cccc(OCC(=O)Nc3nc4ccccc4s3)c1)C2=O | 3.57 | 21.9 | 26 | 97.6 | 14.2 | > 100 | 13.8 | 70.1 | 8.46 | > 100 | 47 | > 100
CC1(C)CCC(S(=O)(=O)c2ccc3c(c2)/C(=N\O)c2cc(S(=O)(=O)N4CCC(O)(c5cccc(C(F)(F)F)c5)CC4)ccc2-3)CC1 | 0.0319 | 0.115 | 0.054 | 0.226 | 0.0206 | 0.0485 | 0.0287 | 0.0749 | 0.0238 | 0.0585 | 3.14 | 
CN(C(=O)c1ccc(F)cc1C(F)(F)F)C1CCN(c2nnc(-c3ccnn3C)c3ccccc23)CC1 | 75.4 | > 100 | 33.3 | > 100 | 24.2 | > 100 | 50.8 | > 100 | 33.3 | > 100 | 30.9 | > 100
O=C(CC12CC3CC(CC(C3)C1)C2)NCCOCCOCCNC(=O)c1cc2c(o1)C(=O)c1ccccc1C2=O | 0.225 | 0.457 | 1.23 | 2.51 | 0.54 | 2.38 | 1.43 | 5.18 | 1.38 | 9.21 | 2.07 | 5.87
COc1ccc(C(CC(=O)c2ccccc2)C(C(=O)c2ccccc2)C(c2ccc(OC)cc2)C2C(=O)NC(=O)NC2=O)cc1 (configuration not stated) | 19.2 | 70.5 | 21.9 | 92.8 | 18.7 | > 100 | 25.9 | > 100 | 7.31 | > 100 | 22.2 | 63.7
O=C1Nc2ccc(F)c3c(OCCO)cc(-c4ccc[nH]4)c1c23 | 1.97 | 10.3 | 3.21 | 11.6 | 0.81 | 10.9 | 1.06 | 10.2 | 1.32 | 10.3 | 4.01 | 20.1
Cc1oc2ccccc2c(=O)c1Cn1nnc2ccccc21 |  | > 100 |  |  |  | 49.2 |  | > 100 |  | > 100 |  | > 100
O=S(=O)(Nc1ccc(-c2nc(-c3cccc(OCCN4CCOCC4)c3)c(-c3ccnc(Br)c3)[nH]2)cc1)c1ccccc1 | 5.64 | > 100 | 3.02 | > 100 | 2.16 | 8.51 | 1.47 | 4.37 | 2.4 | 36.6 | 4.18 | > 100
Cn1ncc2c(Nc3ccc(Br)cc3)nc(Nc3ccc(Br)cc3)nc21 | 3.65 | 13 | 4.68 | 19.4 | 2.61 | 10.9 | 2.61 | 9.59 |  |  | 3.64 | 16.1
CS(=O)(=O)c1nccc(-c2c(-c3cccc(OCc4ccc(F)cc4)c3)nc3sccn23)n1 | 1.92 | 3.41 | 8.89 | > 100 | 8.31 | > 100 | 14.3 | > 100 | 4.62 | > 28 | 43.2 | > 100
O=S(=O)(c1cccc(C(F)(F)F)c1)N1c2ccccc2-n2cccc2C1c1cccnc1 (configuration not stated) |  | > 55.2 |  | > 71.8 |  | > 76 |  | > 76.3 |  | > 52.6 |  | 66.2
CCCC[C@@H]1NC(=O)[C@H](CCCCN)NC(=O)[C@H](CCCNC(=N)N)NC(=O)[C@H](CC(C)C)NC(=O)[C@@H](NC(=O)[C@H](Cc2cccc(Cl)c2)NC(=O)[C@@H]2CCCN2C(=O)[C@@H](NC(C)=O)C(C)C)CCSSC[C@@H](C(=O)N[C@@H](CCCCN)C(=O)N2CCC[C@H]2C(=O)N2CCC[C@H]2C(=O)N[C@@H](CCC(=O)O)C(N)=O)NC(=O)[C@H](Cc2ccccc2)NC(=O)[C@H](CO)NC(=O)[C@H](C)NC(=O)[C@@H]2CCCN2C1=O | > 50 | > 50 | > 50 | > 50 | > 50 | > 50 | > 50 | > 50 | > 50 | > 50 | > 50 | > 50
CC1=CC[C@@H]2[C@@H](CC[C@@]2(C)O)C(C)(C)[C@H]1CC[C@@H]1[C@@]2(C)CCC(=O)C(C)(C)O[C@@H]2CC[C@]1(C)O |  | > 100 |  | 57.8 |  | > 100 |  | 77 |  | > 100 |  | 60.9
O=C1OCC(c2ccc(O)c(O)c2)=C1c1cc(O)c(O)c(O)c1 | 32.7 | > 100 | 39 | > 100 | 36.9 | > 100 | 87.9 | > 100 | 17.9 | 43.3 | 0.0297 | 18.8
